Some test systems named below: A498 renal; HCT-116 colon; HL-60(TB) leukemia; M14 melanoma; NCI-H226 lung; OVCAR-5 ovarian; UACC-257 melanoma; BT-549 breast; MDA-MB-231 breast; MDA-MB-435.
What all share (test): NCI-60 cell line screen, 48 h

These results are taken from PubChem BioAssay (NCI).

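Exposure lasted 48 hours, with cells grown in 96-well plates and compounds tested at five concentrations. GI50 is the concentration that inhibits growth by half. At the TGI there is no net growth.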

As for `N#CN/C(N)=N/CO`, the TGI was greater than 100 µM with A498 renal; greater than 64.4 µM in the assay with HCT-116 colon; greater than 100 µM in the assay on HL-60(TB) leukemia; greater than 100 µM with M14 melanoma; greater than 100 µM in the assay on NCI-H226 lung; greater than 100 µM in the assay on OVCAR-5 ovarian. The molecule also had a TGI with UACC-257 melanoma greater than 100 µM.

Consider `CC(=O)CCn1ncc(Cl)c(Cl)c1=O`, for which the TGI in the assay on A498 renal is 42.9 µM; with HCT-116 colon, 27.9 µM; with HL-60(TB) leukemia, 63.2 µM; with M14 melanoma, 29.7 µM; in the assay on NCI-H226 lung, 31.7 µM; in the assay on OVCAR-5 ovarian it was 33.2 µM. The molecule also displayed a TGI in the assay on UACC-257 melanoma of 31.5 µM.

Consider `CCC(=O)CC(=O)CCC(=O)Nc1cc(C)ccc1C`, for which the TGI in the assay with A498 renal, in the assay on HCT-116 colon, in the assay with HL-60(TB) leukemia and in the assay on M14 melanoma was greater than 100 µM throughout.

With `CCCCOC(=O)CNC(=O)OC/C=C/C#CC#C/C=C/COC(=O)NCC(=O)OCCCC`, the GI50 in the assay with A498 renal, with HCT-116 colon, in the assay with HL-60(TB) leukemia, with M14 melanoma and in the assay with OVCAR-5 ovarian was greater than 100 µM each time. For the same molecule, the TGI with A498 renal was greater than 100 µM; with HCT-116 colon it was greater than 100 µM; with HL-60(TB) leukemia, greater than 100 µM; with M14 melanoma, greater than 100 µM; in the assay with NCI-H226 lung it was greater than 10 µM; with OVCAR-5 ovarian, greater than 100 µM. The TGI with UACC-257 melanoma is greater than 10 µM.

For the molecule `O=C(CCN(C(=O)O)S(=O)(=O)c1ccc(NC(=O)c2ccccc2)cc1)Nc1ccccc1`, the TGI in the assay on A498 renal is greater than 100 µM; in the assay on HCT-116 colon, greater than 69.5 µM; in the assay with HL-60(TB) leukemia, greater than 75.2 µM; with M14 melanoma, greater than 100 µM; with NCI-H226 lung, greater than 100 µM; with OVCAR-5 ovarian it was greater than 100 µM. For the same molecule, the TGI with UACC-257 melanoma is greater than 86.3 µM.

Take `CC(C)C(CCl)NC(=O)c1cccc(C(=O)N[C@H](CCl)C(C)C)n1` (stereo in doubt): the TGI in the assay with A498 renal, with HCT-116 colon, with HL-60(TB) leukemia, in the assay with M14 melanoma, in the assay with NCI-H226 lung and in the assay with OVCAR-5 ovarian was greater than 100 µM in each case.

For the molecule `NC(=S)N/N=C(\CC1OC(=O)c2ccccc21)c1ccc(Cl)cc1` (configuration not stated), the TGI with HCT-116 colon is 54.9 µM; in the assay with HL-60(TB) leukemia, greater than 100 µM; in the assay on M14 melanoma it was greater than 100 µM; in the assay with NCI-H226 lung, 53.3 µM; in the assay on OVCAR-5 ovarian, greater than 100 µM; in the assay on UACC-257 melanoma, greater than 100 µM.

For the molecule `N.N.N.N.O=C([O-])CCl.O=C([O-])CCl.[Co+3].[O-][Cl+3]([O-])([O-])[O-]`, the GI50 in the assay with A498 renal, with HCT-116 colon, in the assay with HL-60(TB) leukemia, in the assay with M14 melanoma, with OVCAR-5 ovarian and in the assay on UACC-257 melanoma was greater than 100 µM in each case. In addition, the TGI in the assay on A498 renal, in the assay with HCT-116 colon, in the assay with HL-60(TB) leukemia, in the assay on M14 melanoma, in the assay on OVCAR-5 ovarian and in the assay with UACC-257 melanoma was greater than 100 µM throughout.

Consider `Nc1ccc([N+](=O)[O-])cc1N=C/C=C/c1ccccc1`, for which the GI50 is 15.1 µM in the assay with A498 renal; 12.5 µM in the assay with BT-549 breast; 7.86 µM with HCT-116 colon; 2.64 µM with HL-60(TB) leukemia; 8.66 µM in the assay with M14 melanoma; 7.57 µM in the assay on MDA-MB-231 breast. In addition, the GI50 in the assay with NCI-H226 lung is 27.8 µM; in the assay on OVCAR-5 ovarian, 81.2 µM; with UACC-257 melanoma, 47.7 µM. Moreover, the TGI with A498 renal was 64.4 µM; in the assay with BT-549 breast it was greater than 100 µM; in the assay on HCT-116 colon, 25 µM; in the assay on HL-60(TB) leukemia, greater than 100 µM; in the assay with M14 melanoma, greater than 100 µM; in the assay with MDA-MB-231 breast, greater than 100 µM. The TGI with NCI-H226 lung, in the assay with OVCAR-5 ovarian and in the assay with UACC-257 melanoma was greater than 100 µM each time.

As for `CC1=C(C(=O)Nc2ccc(F)c(Cl)c2)C(c2ccccc2O)NC(=S)N1` (configuration not stated), the GI50 with BT-549 breast was 19.2 µM; with HCT-116 colon, greater than 50 µM; in the assay on HL-60(TB) leukemia, greater than 50 µM; with M14 melanoma it was greater than 50 µM; in the assay with MDA-MB-231 breast, greater than 50 µM; with MDA-MB-435 it was 32.2 µM. Moreover, the GI50 was greater than 50 µM with NCI-H226 lung, greater than 50 µM in the assay on OVCAR-5 ovarian and 19.8 µM in the assay with UACC-257 melanoma. For the same molecule, the TGI in the assay with BT-549 breast was 49.4 µM; in the assay on HCT-116 colon, greater than 50 µM; in the assay on HL-60(TB) leukemia, greater than 50 µM; in the assay on M14 melanoma it was greater than 50 µM; in the assay with MDA-MB-231 breast, greater than 50 µM; in the assay with MDA-MB-435 it was greater than 50 µM. Besides, the TGI in the assay with NCI-H226 lung, in the assay on OVCAR-5 ovarian and in the assay on UACC-257 melanoma was greater than 50 µM throughout.

With `[N-]=[N+]=NC1(Cc2ccccc2)C(=O)c2cccc3c2N(CCC3)C1=O` (configuration not stated), the TGI with HCT-116 colon, with HL-60(TB) leukemia, in the assay with M14 melanoma, in the assay with NCI-H226 lung, with OVCAR-5 ovarian and in the assay on UACC-257 melanoma was greater than 100 µM throughout.

For the molecule `O=C(Nc1ccn(CCO)c(=O)n1)c1ccccc1`, the TGI with A498 renal, with HCT-116 colon, in the assay on HL-60(TB) leukemia, in the assay on M14 melanoma, in the assay on NCI-H226 lung and in the assay on OVCAR-5 ovarian was greater than 100 µM each time. This molecule showed a TGI in the assay with UACC-257 melanoma greater than 100 µM.

For `COC(=O)C1c2cc3c(cc2C(OC2OC(C)C(OC)C(C)(OC)C2OC)CC1(C)O)C(=O)c1c(O)cc2c(c1C3=O)OC1OC2(C)C(O)C([N+](C)(C)[O-])C1O` (configuration not stated), the TGI in the assay on A498 renal was 3.7 µM; with BT-549 breast it was 9.14 µM; in the assay on HCT-116 colon, greater than 100 µM; in the assay with M14 melanoma, 3.64 µM; in the assay on MDA-MB-231 breast it was 4.74 µM; with OVCAR-5 ovarian, greater than 43.6 µM.

As for `Cc1cc(Nc2ccc(NC(=O)c3ccc(Nc4ccnc5ccccc45)cc3)cc2)nc(N)n1`, the GI50 is 5.13 µM in the assay on A498 renal; 2.25 µM with BT-549 breast; 7.31 µM with HL-60(TB) leukemia; 7.62 µM with M14 melanoma; 2.93 µM with MDA-MB-435; 2.42 µM with NCI-H226 lung. Moreover, the GI50 was 3.4 µM in the assay with OVCAR-5 ovarian and 21.8 µM in the assay with UACC-257 melanoma. The TGI in the assay with A498 renal is greater than 100 µM; in the assay on BT-549 breast, 5.74 µM; with HL-60(TB) leukemia it was greater than 100 µM; in the assay on M14 melanoma it was greater than 100 µM; in the assay on MDA-MB-435 it was greater than 100 µM; in the assay on NCI-H226 lung, 5 µM. Also, the TGI in the assay with OVCAR-5 ovarian came to 37.5 µM; in the assay with UACC-257 melanoma, 87.7 µM.
